# From patent US20070129344A1, “Bicyclic 6-alkylidene-penem beta-lactamase inhibitors and beta-lactam antibiotic combination: a broad spectrum antibiotic” (priority 2005, published 2007)
# How the values were obtained:
# class C enzyme AmpC = class C enzyme AmpC (Enterobacter cloacae, UniProt P05364); assay: β-Lactamase inhibition IC50 (nitrocefin, spectrophotometric); format: biochemical; details: enzyme 2.1 nM, 10 min preincubation at 25° C., nitrocefin; read-out: IC50 Class C AmpC
# Protocol: (§1) β-Lactamase inhibitory activity of the penem inhibitors was determined spectrophotometrically as described by Bush et al., [Bush, K., Macalintal, C., Rasmussen, B. A., Lee, V. and Yang, Y. Antimicrobial Agents and Chemotherapy 1993, 37, 851]. Homogeneously purified class A β-lactamases TEM-1 from E. coli and Imi-1 from Enterobacter cloacae, class B enzyme CcrA from Bacteroides fragilis and class C enzyme AmpC from Enterobacter cloacae were employed in the assay. The enzyme concentrations for TEM-1, Imi-1, CcrA and AmpC were 4.3, 7.1, 1.2 and 2.1 nM, respectively. A wide range of inhibitor concentrations were prepared in 50 mM PO4, pH 7.0 to include the possible IC50 values. The substrate used to initiate the enzyme reaction was nitrocefin at 50 μg/ml in the same buffer as the inhibitor. Initially the enzyme and inhibitor (20 μl each) were preincubated for 10 minutes at 25° C. prior to the addition of 160 μl volume of nitrocefin. Initial rates of hydrolysis were monitored for 5 minutes at 495 nm using a Molecular Devices Spectra Max 250 with kinetic protocol of SoftMax Program. Readings from the Spectra Max 250 were exported and transferred to Microsoft Excel. The percent of inhibition of each inhibitor concentration was calculated based on the control enzyme activity. The inhibitor concentration that caused a 50% reduction in the enzymatic activity (IC50) was determined graphically.
# [1] = target: class A β-lactamase Imi-1 (Enterobacter cloacae, UniProt Q46991); assay: as above; format: biochemical; details: enzyme 7.1 nM, 10 min preincubation at 25° C., nitrocefin; read-out: IC50 Class A Imi
# Chain of class A β-lactamase Imi-1 (Q46991 entry or part of it): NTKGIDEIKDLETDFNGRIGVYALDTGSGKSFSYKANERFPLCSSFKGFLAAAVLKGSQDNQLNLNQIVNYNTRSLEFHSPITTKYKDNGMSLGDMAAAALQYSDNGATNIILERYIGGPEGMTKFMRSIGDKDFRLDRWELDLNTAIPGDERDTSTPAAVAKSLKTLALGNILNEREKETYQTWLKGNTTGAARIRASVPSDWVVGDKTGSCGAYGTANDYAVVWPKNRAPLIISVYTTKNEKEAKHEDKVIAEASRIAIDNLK
# Protocol: as §1
# class B enzyme CcrA = class B enzyme CcrA (Bacteroides fragilis, UniProt P25910); assay: as above; format: biochemical; details: enzyme 1.2 nM, 10 min preincubation at 25° C., read-out: IC50 Class B Ccr
# Chain of class B enzyme CcrA (P25910 19-249): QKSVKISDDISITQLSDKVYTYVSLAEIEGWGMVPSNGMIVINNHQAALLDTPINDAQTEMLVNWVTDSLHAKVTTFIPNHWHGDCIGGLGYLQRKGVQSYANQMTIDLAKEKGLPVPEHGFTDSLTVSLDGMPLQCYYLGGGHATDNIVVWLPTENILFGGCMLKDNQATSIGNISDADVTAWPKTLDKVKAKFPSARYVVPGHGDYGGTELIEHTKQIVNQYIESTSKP
# Protocol: as §1
# [2] = tested on: K. oxytoca GC 7627 TEM-1 K1 KPC-2; assay: MIC microbroth dilution; β-lactamase class A, A (Cb'ase); format: cell-based; details: K. oxytoca GC 7627; Cefepime + 4 ug/ml Compound 1
# Protocol: (§2) The in vitro activities of the antibiotics were determined by the microbroth dilution method as recommended by the National Committee for Clinical Laboratory Standards (NCCLS). (NCCLS. 2000. Methods for Dilution Antimicrobial Susceptibility Tests for Bacteria That Grow Aerobically; Approved Standards: M7-A5, vol. 19. National Committee for Clinical Laboratory Standards, Villanova, Pa.). Mueller-Hinton II broth (MHBII)(BBL Cockeysville, Md.), was used for the testing procedure. […]. The plates were incubated for 18-22 hours at 35° C. in ambient air.
# E. coli GC 2805 (CcrA) = assay: MIC microbroth dilution; β-lactamase class B; format: cell-based; details: E. coli GC 2805; Cefepime + 4 ug/ml Compound 1
# Protocol: as §2
# [3] = tested on: P. aeruginosa GC 1764 (AmpC); assay: MIC microbroth dilution; β-lactamase class C; format: cell-based; details: Cefepime + 4 ug/ml Compound 1
# Protocol: as §2
# [4] = tested on: E. cloacae GC 1712 AmpC-inducible; assay: MIC microbroth dilution; β-lactamase class C; format: cell-based; details: Cefepime + 4 ug/ml Compound 1
# Protocol: as §2
# E. coli GC 2894 (AmpC) = assay: MIC microbroth dilution; β-lactamase class C; format: cell-based; details: Cefepime + 4 ug/ml Compound 1
# Protocol: as §2
# [5] = tested on: E. cloacae GC 1477 (AmpC); assay: MIC microbroth dilution; β-lactamase class C; format: cell-based; details: Cefepime + 4 ug/ml Compound 1
# Protocol: as §2
# [6] = tested on: E. cloacae PT 967 Inducible AmpC; assay: MIC microbroth dilution; β-lactamase class C; format: cell-based; details: Cefepime + 4 ug/ml Compound 1
# Protocol: as §2
# [7] = tested on: A. baumannii GC 7684 AmpC, AmpC; assay: MIC microbroth dilution; β-lactamase class C; format: cell-based; details: Cefepime + 4 ug/ml Compound 1
# Protocol: as §2
# [8] = tested on: S. marcescens PT 696 Inducible AmpC; assay: MIC microbroth dilution; β-lactamase class C; format: cell-based; details: Cefepime + 4 ug/ml Compound 1
# Protocol: as §2
# [9] = tested on: K. pneumoniae GC 7820 Act 1; assay: MIC microbroth dilution; β-lactamase class C; format: cell-based; details: K. pneumoniae GC 7820; Cefepime + 4 ug/ml Compound 1
# Protocol: as §2
# [10] = tested on: K. pneumoniae GC 7823 Fox 5; assay: MIC microbroth dilution; β-lactamase class C; format: cell-based; details: K. pneumoniae GC 7823; Cefepime + 4 ug/ml Compound 1
# Protocol: as §2
# [11] = tested on: E. cloacae GC 4142 (AmpC); assay: MIC microbroth dilution; β-lactamase class C; format: cell-based; details: Cefepime + 4 ug/ml Compound 1
# Protocol: as §2
# [12] = tested on: C. freundii GC 4164 Inducible AmpC; assay: MIC microbroth dilution; β-lactamase class C; format: cell-based; details: Cefepime + 4 ug/ml Compound 1
# Protocol: as §2
# [13] = tested on: E. cloacae PT 1494 Inducible AmpC; assay: MIC microbroth dilution; β-lactamase class C; format: cell-based; details: Cefepime + 4 ug/ml Compound 1
# Protocol: as §2
# [14] = tested on: A. baumannii GC 7687 AmpC; assay: MIC microbroth dilution; β-lactamase class C; format: cell-based; details: Cefepime + 4 ug/ml Compound 1
# Protocol: as §2
# [15] = tested on: P. aeruginosa GC 3153 Inducible AmpC; assay: MIC microbroth dilution; β-lactamase class C; format: cell-based; details: Cefepime + 4 ug/ml Compound 1
# Protocol: as §2
# E. cloacae GC 1475 (P99) = assay: MIC microbroth dilution; β-lactamase class C; format: cell-based; details: Cefepime + 4 ug/ml Compound 1
# Protocol: as §2
# E. coli GC 6539 CMY-2 = assay: MIC microbroth dilution; β-lactamase class C; format: cell-based; details: Cefepime + 4 ug/ml Compound 1
# Protocol: as §2
# [16] = tested on: E. aerogenes 1697-MP GC 7845 AmpC; assay: MIC microbroth dilution; β-lactamase class C; format: cell-based; details: E. aerogenes GC 7845; Cefepime + 4 ug/ml Compound 1
# Protocol: as §2
# [17] = tested on: K. pneumoniae GC 7821 DHA 1; assay: MIC microbroth dilution; β-lactamase class C; format: cell-based; details: K. pneumoniae GC 7821; Cefepime + 4 ug/ml Compound 1
# Protocol: as §2
# [18] = tested on: K. pneumoniae GC 7632 TEM-1 KPC-2, SHV-7, SHV-12; assay: MIC microbroth dilution; β-lactamase class A, A (Cb'ase), A (ESBL); format: cell-based; details: Cefepime + 4 ug/ml Compound 1
# Protocol: as §2
# [19] = tested on: S. typhimurium GC 4198 SHV-1 CTX-M-5; assay: MIC microbroth dilution; β-lactamase class A, A (ESBL); format: cell-based; details: S. typhimurium GC 4198; Cefepime + 4 ug/ml Compound 1
# Protocol: as §2
# Chain of class C enzyme AmpC (P05364 21-381): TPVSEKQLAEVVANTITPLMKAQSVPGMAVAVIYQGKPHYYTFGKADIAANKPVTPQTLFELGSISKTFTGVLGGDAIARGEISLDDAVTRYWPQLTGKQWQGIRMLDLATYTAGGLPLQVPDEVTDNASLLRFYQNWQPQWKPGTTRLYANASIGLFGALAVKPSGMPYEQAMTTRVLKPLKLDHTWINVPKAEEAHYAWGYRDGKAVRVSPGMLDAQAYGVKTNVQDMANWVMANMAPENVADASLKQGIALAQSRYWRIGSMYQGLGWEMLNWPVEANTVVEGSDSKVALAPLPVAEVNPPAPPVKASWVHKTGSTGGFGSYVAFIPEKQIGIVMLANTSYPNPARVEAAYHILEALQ
structure (smiles),measurement,setting,value
"O=C([O-])C1=CS[C@@H]2/C(=C\c3cn4c(n3)CCC4)C(=O)N12.[Na+] [Compound 1, (5R), (6Z)-6-(6,7-Dihydro-5H-pyrrolo[1,2-a]imidazol-2-ylmethylene)-7-oxo-4-thia-1-aza-bicyclo[3.2.0]hept-2-ene-2-carboxylic Acid, Sodium Salt]",IC50,class C enzyme AmpC,4.8 nM
same,IC50,[1],7.8 nM
same,IC50,class B enzyme CcrA,66 nM
same,MIC,[2],2 µg/mL
same,MIC,E. coli GC 2805 (CcrA),>16 µg/mL
same,MIC,[3],1 µg/mL
same,MIC,[4],0.12 µg/mL
same,MIC,E. coli GC 2894 (AmpC),0.06 µg/mL
same,MIC,[5],0.25 µg/mL
same,MIC,[6],0.06 µg/mL
same,MIC,[7],8 µg/mL
same,MIC,[8],0.06 µg/mL
same,MIC,[9],0.25 µg/mL
same,MIC,[10],0.12 µg/mL
same,MIC,[11],0.12 µg/mL
same,MIC,[12],0.06 µg/mL
same,MIC,[13],0.06 µg/mL
same,MIC,[14],16 µg/mL
same,MIC,[15],8 µg/mL
same,MIC,E. cloacae GC 1475 (P99),0.12 µg/mL
same,MIC,E. coli GC 6539 CMY-2,0.06 µg/mL
same,MIC,[16],0.06 µg/mL
same,MIC,[17],0.03 µg/mL
same,MIC,[18],16 µg/mL
same,MIC,[19],0.50 µg/mL
